These are literature values, as cited in article PMC11091968, “Degradation of the α-Carboxyl Terminus 11 Peptide: In Vivo and Ex Vivo Impacts of Time, Temperature, Inhibitors, and Gender in Rat” (ACS Pharmacology & Translational Science, 2024).

Counter-ions that a name gives are not always drawn.

The test system of data set [1] is serine/threonine protein phosphatases. To be noted: against serine/threonine protein phosphatases; 14 (Table S4); cited from earlier work. From the text: (§1) page 5: S-5 Table S4. Protease and phosphatase inhibitor cocktail and their major targets. Abbreviations: AEBSF: 4-(2-aminoethyl) benzenesulfonyl fluoride hydrochloride; ATPase: adenosine 5′ -triphosphatase; E-64: L-trans-3-carboxyoxiran-2-carbonyl-L-leucylagmatine; IC 50: half maximal inhibitory concentration;; Ki: inhibitory constant; MW: molecular weight; N/A: not applicable; PP1 or 2A: protein ph osphatase 1 or 2A; PTP: protein tyrosine phosphatase; K293: human embryonic kidney cell line; HS596: human HS683 glioma cell line; SKN695: human SK-N-SH neuroblastoma cell line. Ingredient MW (Da ...

Data set [2] relates to serine/threonine protein phosphatases 2A. The note with it: against serine/threonine protein phosphatases 2A; 14 (Table S4); cited from earlier work.
Description: as §1

The target in data set [3] is papain. To be noted: against papain; 8 (Table S4); cited from earlier work.
Description: as §1

For data set [4], the target named is lysosomal and prostatic acid phosphatases. To be noted: against lysosomal and prostatic acid phosphatases; 21 (Table S4); cited from earlier work.
Description: as §1

The target of data set [5] is plasmin. The note with it: against plasmin; 10 (Table S4); cited from earlier work.
Description: as §1

The target in data set [6] is trypsin. The note with it: against trypsin; 10 (Table S4); cited from earlier work.
Description: as §1

Data set [7] relates to HS596 cells. The note with it: tested on HS596 cells (human HS683 glioma cell line); ref 1-3 (Table S4); cited from earlier work.
Description: as §1

Data set [8] concerns K293 cells. To be noted: tested on K293 cells (human embryonic kidney cell line); ref 1-3 (Table S4); cited from earlier work.
Description: as §1

Data set [9] concerns SKN695 cells. The note with it: tested on SKN695 cells (human SK-N-SH neuroblastoma cell line); ref 1-3 (Table S4); cited from earlier work.
Description: as §1

For data set [10], the system named is human cathepsin D. More on the design: method as in earlier work. The note with it: against human cathepsin D; 11 (Table S4); cited from earlier work. From the text:
page 5: S-5 Table S4. Protease and phosphatase inhibitor cocktail and their major targets. Abbreviations: AEBSF: 4-(2-aminoethyl) benzenesulfonyl fluoride hydrochloride; ATPase: adenosine 5′ -triphosphatase; E-64: L-trans-3-carboxyoxiran-2-carbonyl-L-leucylagmatine; IC 50: half maximal inhibitory concentration;; Ki: inhibitory constant; MW: molecular weight; N/A: not applicable; PP1 or 2A: protein ph osphatase 1 or 2A; PTP: protein tyrosine phosphatase; K293: human embryonic kidney cell line; HS596: human HS683 glioma cell line; SKN695: human SK-N-SH neuroblastoma cell line.

Data set [11] deals with Aspartic proteases. The note with it: enzyme not given; 11 (Table S4); cited from earlier work.
Description: as §1

For data set [12], the system named is phosphatidylserine. The note with it: cited from earlier work.
Description: as §1

The term IC50 denotes the concentration at which inhibition is half-maximal. As for `C[C@@]12C(=O)OC(=O)[C@]1(C)[C@H]1CC[C@@H]2O1` [Cantharidin], the IC50 was 0.47 µM in data set [1] and 0.04 µM in [2].
One may read the Ki as a measure of affinity in units of concentration, obtained from inhibition or displacement. Regarding `CC(C)C[C@H](NC(=O)[C@H]1O[C@@H]1C(=O)O)C(=O)NCCCCN=C(N)N` (relative stereo) [E-64, L-trans-3-carboxyoxiran-2-carbonyl-L-leucylagmatine], the Ki in data set [3] is 0.009 µM.
Turning to `O=C([O-])C(O)C(O)C(=O)[O-].[Na+].[Na+]` (stereo not drawn) [Sodium tartrate], the Ki in data set [4] is 1 µM.
In the case of Leupeptin, the inhibition constant Ki is 0.0034 µM in data set [5] and 0.0035 µM in data set [6].
Consider `NCCc1ccc(S(=O)(=O)F)cc1` [AEBSF, 4-(2-aminoethyl) benzenesulfonyl fluoride hydrochloride], for which the IC50 in data set [7] was 300 µM; in [8], 1000 µM; in data set [9], 300 µM.
Turning to Pepstatin A, the IC50 in data set [10] was 0.021 µM. Moreover, in data set [11], the Ki is 0.01 nM.
`[Na+].[Na+].[Na+].[O]=[V]([O-])([O-])[O-]` [Sodium orthovanadate]: the IC50 in data set [12] was 100 µM.
